In patent US20150306107A1, “SAA Derivative Compound Restores eNOS And Inhibits Oxidative Stress-Induced A Diseases In Hypoxia” (JANSFAT BIOTECHNOLOGY CO., LTD., priority 2014, published 2015):

How the values were obtained:
[1] = system: eNOS; test: Immunohistochemistry of eNOS in pulmonary artery wall after long-term hypoxia; assay type: in vivo, rat
Protocol: (§1) For histological analysis, the rat pulmonary right lung sections or pulmonary artery were fixed in 4% formaldehyde for 1 hour at 4° C. After washing with phosphate buffer saline (PBS), they were sent for paraffin-embedded serial-sections. Serial cross-sections 7 μm thick were obtained from the cross-section of each pulmonary artery. Tissue sections were deparaffinized and rehydrated in an ethanol series. After tissue rehydration, endogenous peroxidase activity was quenched with 3% hydrogen peroxide for 30 minutes, and the sections were gently washed in PBS. Non-specific binding was blocked by incubation with 1% nonimmune bovine serum albumin (BSA) in PBS for 30 minutes at room temperature.
(§2) The tissue sections were incubated for 1 hour at room temperature with antibody against VEGF (ab1442, Millipore) or against eNOS (ab5589, Abcam) diluted 1:200 in PBS with 1% BSA. After being washed with PBS, the sections were incubated for 1 hour at room temperature with biotinylated goat antibody against rabbit (Dako, E-0432) and diluted 1:200 in PBS for 30 minutes at room temperature. The reaction was visualized by the addition of 3-3-diaminobenzidine (DAB) in a working solution of DAB substrate kit for peroxidase (vector lab, SK-4100) at room temperature for 5 minutes. The sections were washed in PBS for 10 minutes between each step, and counterstained with haematoxylin. […]

[2] = system: PDE5A; conditions: hypoxia 21 days; % of the normal level; hypoxia 43.8±12.6%
[3] = system: reactive oxygen species (ROS) of lung tissues; conditions: long-term hypoxia
Protocol: In our in vivo hypoxic experiments, 10-week old male Wistar rats were equally divided into four groups: a normoxia group, a hypoxia group, a hypoxia+SPAAX-1 or SPAAX-1 RX complex group, and a hypoxia+Sildenafil or Sildenafil RX complex group. All the rats were maintained on a 12-h light/12-hr dark cycle at 25±1° C. and were provided with food and water ad libitum. The normoxia group was housed in standard normoxic conditions and the other three treated groups were continuously housed in a hypoxic chamber (10% O2) for 21 days, except for a 30-min interval each day when the chamber was cleaned (FIG. 2). During which, a normoxic gas mixture was prepared from compressed air.
Pulmonary ROS was measured using 2′-7′-dichloro-fluorescein (H2DCF-DA, Molecular Probe, USA). Briefly, 10 μl of lung tissue extract was diluted 100-fold with cold PBS and labelled with 5 μmol/L 2′-7′-dichlorofluorescein, and the mixture was incubated at 37° C. for 30 minutes and put in a centrifuge (1000 rpm) for 5 min. Fluorescence was measured at 485 nm excitation and 530 nm emission to determine the concentration of H2O2 (FLUOstar Galaxy, Germany).

[4] = system: VEGF; test: Western blotting of VEGF in lung tissue after long-term hypoxia; assay type: in vivo, rat; conditions: hypoxia 21 days; hypoxia 168.9±24.6%
[5] = system: hypoxic rats; test: Hemodynamics of rats with hypoxic PAH, chronic hypoxia 21 days; assay type: in vivo, rat; conditions: 5 mg/kg/day, p.o.
Description: Int J Immunopathol Pharmacol 24:925, 2011). The heart weight and body weight ratio (HW/BW) of the rats treated with one of […] complex, Sildenafil or Sildenafil RX complex each measured on the 21st hypoxic day. All animal care and the experimental protocols of this study were approved by the Animal Care and Use Committee of the Kaohsiung Medical University. Male Wistar rats (200-250 g), provided by the National Laboratory Animal Breeding and Research Center (Taipei, Taiwan), were housed under constant temperature and controlled illumination. Food and water were available ad libitum. Normoxic rats were housed in room temperature air at normal atmospheric pressure (760 mm Hg). […] After completion of the exposure, tissues were prepared as indicated for contraction measurements, Western blot analysis, RNA extraction, or morphological analysis. […] Their breathing was normal and their body temperature was maintained at 37° C. […] The animals were then sacrificed by the administration of an overdose of urethane.

[6] = system: VEGF; test: Western blotting of VEGF expression in isolated rat pulmonary artery ring, short-term (acute) hypoxia; assay type: cell-based; conditions: isolated pulmonary artery
Protocol: (§3) In our in vitro short-term experiment, isolated rat pulmonary artery was grown under normoxia (20% O2) or hypoxia (1% O2) at 37° C. for 24 hrs as was previously done (Wu BN, et al. Int J Immunopathol Pharmacol 24:925, 2011). The heart weight and body weight ratio (HW/BW) of the rats treated with one of SPAAX-1, SPAAX-1 RX complex, Sildenafil or Sildenafil RX complex each measured on the 21st hypoxic day. All animal care and the experimental protocols of this study were approved by the Animal Care and Use Committee of the Kaohsiung Medical University. Male Wistar rats (200-250 g), provided by the National Laboratory Animal Breeding and Research Center (Taipei, Taiwan), were housed under constant temperature and controlled illumination. Food and water were available ad libitum.
(§4) Whole right lung tissues of hypoxia-treated and untreated rats were isolated and cut into small strips and placed into an extraction buffer (Tris 10 mM, pH 7.0, NaCl 140 mM, PMSF 2 mM, DTT 5 mM, NP-40 0.5%, pepstatin A 0.05 mM and leupeptin 0.2 mM) for protein extraction, and then centrifuged at 12,500 g for 30 min. To measure the expression levels of the proteins, the total proteins were extracted and Western blotting analysis was performed as described previously (Bivalacqua T J, et al., 2013, TJ PLoSONE 8: e68028. doi:10.1371/journal. pone.0068028). Briefly, the protein extract was boiled to a ratio of 4:1 with a sample buffer (Tris 100 mM, pH 6.8, glycerol 20%, SDS 4% and bromophenol blue 0.2%). Electrophoresis was performed using 10% SDS-polyacrylamide gel (2 hr, 100 V, 40 mA, […] protein per lane). Separated proteins were transferred to PVDF membranes treated with 5% fat-free milk powder to block the nonspecific IgGs (90 min, 100 V) and incubated for one hour with a specific protein antibody. The blot was then incubated with anti-mouse or anti-goat IgG linked to alkaline phosphatase (1:1000) for 1 hr. Immunoreactive bands were visualized using horseradish peroxidase-conjugated secondary antibodies and subsequent electrochemiluminescence (ECL) detection (GE Healthcare Bio-Sciences Corp., Piscataway, N.J., U.S.A.). Mouse or rabbit monoclonal antibody of eNOS (Upstate, N.Y., U.S.A.), sGCα (Sigma-Adrich, CA, U.S.A., sGCβ (Santa Cruz, Calif., U.S.A.), PDE-5A (BD Tansduction, San Jose, Calif., U.S.A.), PKG (Calbiochem, San Diego, Calif., U.S.A.) ROCKII (Upstate, N.Y., U.S.A.), RhoA (Santa Cruze, Calif., U.S.A.) and the loading control protein β-actin (Sigma-Adrich, MO, U.S.A.) were used in our Western blot analysis.
(§5) The Western blotting analysis measurements were performed as per lung tissue.

[7] = system: hypoxic rats; test: Right ventricular hypertrophy (RV/LV+S, right heart index) after long-term hypoxia; assay type: in vivo, rat; conditions: compared to the hypoxia state
Protocol: (§6) The right lobes of the rat lungs and heart of six rats from each group were cut and soaked in formalin, dehydrated through graded alcohols, and embedded in paraffin wax. The lung tissue specimens fixed with formalin (4%) were embedded in paraffin for one hour at 4° C., cut into 4-μm-thick sections, and subjected to H&E staining before examination by light microscope. In our histopathological study, we measured the thickening of the medial wall of the small intrapulmonary arteries under an Eclipse TE2000-S (Nikon) microscope. In the heart tissues, the 4-μm-thick paraffin sections were cut from paraffin-embedded tissue blocks and de-paraffinized by immersion in xylene and rehydrated as previously described (Bivalacqua T J, et al., PLoSONE 8: e68028. doi:10.1371/journal. pone.0068028). The slices were then dyed with H&E. After gently rinsing with water, each slide was dehydrated through graded alcohols and finally soaked in xylene twice. The relative cardiac weight of right ventricle (RV)/[left ventricle (LV)+intraventricular septum (S)] ratio (i.e. right heart index) was calculated using right ventricle/left ventricle+septum (RV/LV+S). Measurements were obtained with Histolab software (Microvision Instruments, Evry, France).

[8] = system: hypoxic rats; test: Pulmonary artery wall thickness and muscularization (HE staining) after long-term hypoxia; assay type: in vivo, rat
Protocol: as §6

[9] = system: PKG; test: Western blotting of PKG in lung tissue after long-term hypoxia; assay type: in vivo, rat; conditions: hypoxia 21 days
Protocol: as §4, with “Mouse or rabbit monoclonal antibody of eNOS (Upstate, N.Y., U.S.A.), sGCα (Sigma-Adrich, CA, U.S.A., sGCβ (Santa Cruz, Calif., U.S.A.), PDE-5A (BD Tansduction, San Jose, Calif., U.S.A.), PKG (Calbiochem, San Diego, Calif., U.S.A.) ROCKII (Upstate, N.Y., U.S.A.), RhoA (Santa Cruze, Calif., U.S.A.) and the loading control protein β-actin (Sigma-Adrich, MO, U.S.A.) were used in our Western blot analysis.” left out

[10] = system: eNOS; test: Western blotting of eNOS in lung tissue after long-term hypoxia; assay type: in vivo, rat; conditions: hypoxia 21 days; compared to normoxia control
[11] = system: eNOS; test: Western blotting of eNOS expression in isolated rat pulmonary artery ring, short-term (acute) hypoxia or normoxia; assay type: cell-based; conditions: isolated pulmonary artery, acute hypoxia
Protocol: as §3, §4, §5

[12] = system: VEGF; test: Immunohistochemistry of VEGF in pulmonary artery wall after long-term hypoxia; assay type: in vivo, rat
Protocol: as §1, §2

[13] = system: sGCα1; test: Western blotting of sGCα1 in lung tissue after long-term hypoxia; assay type: in vivo, rat; conditions: hypoxia 21 days; compared to normoxia control
[14] = system: sGCα1; test: Western blotting of sGCα1 expression in isolated pulmonary artery, short-term hypoxia; assay type: cell-based, rat
Protocol: as §3
Whole right lung tissues of hypoxia-treated and untreated rats were isolated and cut into small strips and placed into an extraction buffer (Tris 10 mM, pH 7.0, NaCl 140 mM, PMSF 2 mM, DTT 5 mM, NP-40 0.5%, pepstatin A 0.05 mM and leupeptin 0.2 mM) for protein extraction, and then centrifuged at 12,500 g for 30 min. To measure the expression levels of the proteins, the total proteins were extracted and Western blotting analysis was performed as described previously (Bivalacqua T J, et al., 2013, TJ PLoSONE 8: e68028. doi:10.1371/journal. pone.0068028). […]

[15] = system: NOx in lung tissue; conditions: 21 days of hypoxia; control group 100%, hypoxia 59.8±3.7%
Protocol: All the rats were maintained on a 12-h light/12-hr dark cycle at 25±1° C. and were provided with food and water ad libitum. The normoxia group was housed in standard normoxic conditions and the other three treated groups were continuously housed in a hypoxic chamber (10% O2) for 21 days, except for a 30-min interval each day when the chamber was cleaned (FIG. 2). During which, a normoxic gas mixture was prepared from compressed air.
Production of NO, represented by its metabolite nitrate+nitrite (NOx), in lung tissue extracts was determined using the Griess method (Chung H H et al, Br J Pharmacol 160: 971, 2010; Vascular Pharmacology 53: 239, 2010). The three step Greiss test converts nitrate (NO3^−) into nitrite (NO2^−), resulting in a total NO2^− concentration from a standard calibration curve. The lung tissue extracts were homogenized, washed with PBS and incubated in a lysis buffer in addition to a protease inhibitor cocktail (Sigma, St. Louis, Mo.) to obtain the extracts of lung proteins. […] The samples were then incubated (25° C, 10 min) with Griess reagent [N-(1-naphthyl)-ethylenediamine: 0.2% (w/v), sulphanilamide: 2% (w/v), solubilized in double-distilled water: 95% and phosphoric acid: 5% (v/v)] and the absorbance measured at 540 nm. […]

[16] = system: ROCK II; test: Western blotting of ROCK II in lung tissue after long-term hypoxia; assay type: in vivo, rat; conditions: hypoxia 21 days; hypoxia 144.7±12.6%
[17] = system: eNOS; test: Immunohistochemistry of eNOS in isolated pulmonary artery after short-term hypoxia; assay type: cell-based, rat; conditions: short-term acute hypoxia; 40, 80 μM
Protocol: as §3
as §1, with “Non-specific binding was blocked by incubation with 1% nonimmune bovine serum albumin (BSA) in PBS for 30 minutes at room temperature.” left out

[18] = system: VEGF; test: Immunohistochemistry of VEGF in isolated pulmonary artery after short-term hypoxia; assay type: cell-based, rat; conditions: short-term acute hypoxia; 40, 80 μM
Protocol: as §3
as §1, with “Non-specific binding was blocked by incubation with 1% nonimmune bovine serum albumin (BSA) in PBS for 30 minutes at room temperature.” left out

Compound | eNOS immunostaining reactivity of pulmonary artery [1] | PDE5A expression in lung tissue [2] [%] | hypoxia-induced increase of dichlorofluorescein (ROS of lung tissues) [3] | VEGF expression in lung tissue [4] [%] | BW (body weight) [5] [g] | MPAP (mean pulmonary arterial pressure) ([5]; normoxia 12.9 ± 0.9, hypoxia 26.5 ± 0.6) [mmHg] | VEGF in acute hypoxia [6] | thickness of Right ventricular [7] | hypoxia-induced pulmonary artery wall thickness ([8]; hypoxia 21 days, 5 mg/kg/day, hypoxia 165.8±5.4%) | muscularizations of distal pulmonary artery (HE staining) ([8]; hypoxic rats, versus vehicle only) | PKG expression in lung tissue [9] [%] | eNOS expression in lung tissue [10] [%] | eNOS in acute hypoxia [11] | VEGF immunostaining reactivity of pulmonary artery [12] | sGCα1 expression in lung tissue [13] [%] | SGC-a in hypoxia [14] | levels of NOx in lung tissue [15] [%] | ROCKII expression in lung tissue [16] [%] | IHC of eNOS in isolated pulmonary artery [17] | IHC of VEGF in isolated pulmonary artery [18]
CCCc1nn(C)c2c(=O)[nH]c(-c3cc(S(=O)(=O)N4CCN(C)CC4)ccc3OCC)nc12.O=C1OC(C(O)CO)C(O)=C1O [Sildenafil ascorbate complex] | restored the decay of eNOS | 109.0±3.8 | reduced | 125.7±22.5 | 275.1 ± 10.4 | 19.8±0.7 | inhibited | reduced | inhibited | significantly lower | 68.7±3.7 | 102.6±7.7 | restored | reduced | 72.0±4.7 | neither SPAAX-1 ascorbate complex nor Sildenafil ascorbate complex significantly affected | 84.5±14.2 | 97.4±10.9 | – | –
L-sodium ascorbate+L-ascorbic acid buffer [ascorbic/ascorbate buffer] | – | – | – | – | – | – | – | – | – | – | – | – | – | – | – | – | – | – | reduced | reduced
